The values below come from ChEMBL document CHEMBL3046361, “Coumarin: a potential nucleus for anti-inflammatory molecules” (Med Chem Res, 2013).

As usually defined, the inhibition is the percentage by which the read-out fell short of the control. Usually IC50 stands for the midpoint of a concentration-inhibition curve.

Test [1] concerns Rattus norvegicus. Nature of the test: Anti-inflammatory activity in albino Rattus norvegicus (rat) assessed as inhibition of carrageenan-induced paw edema at 10 mg/kg, po administered 1 hr prior to carrageenan-challenge measured after 3 hr relative to control. In kind it is functional. In general terms: The carrageenan paw model is a standard test of acute inflammation.
The test system of test [2] is Rattus norvegicus. Nature of the test: Anti-inflammatory activity in Rattus norvegicus (rat) assessed as inhibition of carrageenan-induced paw edema at 0.1 mmoles/kg relative to control. In kind it is functional. The conditions noted are these: read-out: INH.
Test [3] addresses T1, Seed linoleate 13S-lipoxygenase-1 (Glycine max) (UniProt P08170).
T1 sequence (whole entry): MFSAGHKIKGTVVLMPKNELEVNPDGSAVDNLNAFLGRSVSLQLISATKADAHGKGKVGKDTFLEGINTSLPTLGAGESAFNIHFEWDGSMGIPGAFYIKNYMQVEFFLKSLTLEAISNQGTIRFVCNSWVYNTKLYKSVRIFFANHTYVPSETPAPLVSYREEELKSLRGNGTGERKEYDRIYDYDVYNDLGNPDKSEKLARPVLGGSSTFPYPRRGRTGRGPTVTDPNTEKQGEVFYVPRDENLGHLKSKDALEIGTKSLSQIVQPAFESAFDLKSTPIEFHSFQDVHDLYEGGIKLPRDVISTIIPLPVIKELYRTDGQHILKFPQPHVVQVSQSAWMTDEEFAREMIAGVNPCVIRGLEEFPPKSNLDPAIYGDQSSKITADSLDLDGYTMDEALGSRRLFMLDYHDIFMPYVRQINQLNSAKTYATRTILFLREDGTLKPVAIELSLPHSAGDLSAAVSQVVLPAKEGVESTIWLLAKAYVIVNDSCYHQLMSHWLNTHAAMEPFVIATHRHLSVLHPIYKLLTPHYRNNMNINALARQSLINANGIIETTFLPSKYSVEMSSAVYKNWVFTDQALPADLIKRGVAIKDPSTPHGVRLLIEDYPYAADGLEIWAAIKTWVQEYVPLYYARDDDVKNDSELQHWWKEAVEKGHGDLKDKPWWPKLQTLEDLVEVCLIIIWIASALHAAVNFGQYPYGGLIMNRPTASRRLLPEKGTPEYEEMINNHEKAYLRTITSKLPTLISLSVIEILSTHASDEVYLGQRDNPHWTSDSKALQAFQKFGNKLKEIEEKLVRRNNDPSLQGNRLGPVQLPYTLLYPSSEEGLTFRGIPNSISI
Nature of the test: Inhibition of Glycine max (soybean) lipooxygenase.

For a further test, the system named is PBMC. Nature of the test: Anti-inflammatory activity in Homo sapiens (human) PBMC assessed as inhibition of LPS-induced TNFalpha production. In kind it is functional, cell-based.
The test system of test [4] is Rattus norvegicus. Put plainly: Anti-inflammatory activity in albino Rattus norvegicus (rat) assessed as inhibition of carrageenan-induced paw edema at 100 mg/kg, po administered 30 min prior to carrageenan-challenge measured after 5 hr relative to control. It counts as functional.
Test [5] addresses Prostaglandin G/H synthase 1 (Homo sapiens) (UniProt P23219). Put plainly: Inhibition of COX1 (unknown origin). As to conditions: concentration not given here.
The subject of test [6] is Rattus norvegicus. Put plainly: Anti-inflammatory activity in Rattus norvegicus (rat) assessed as inhibition of carrageenan-induced paw edema at 100 mg/kg, po relative to control. It counts as functional.
Test [7] has as its system Rattus norvegicus. Nature of the test: Anti-inflammatory activity in Rattus norvegicus (rat) assessed as inhibition of carrageenan-induced paw edema relative to control. It counts as functional.
For test [8], the system named is Rattus norvegicus. Nature of the test: Anti-inflammatory activity in albino Rattus norvegicus (rat) assessed as inhibition of carrageenan-induced paw edema at 10 mg/kg, po administered 30 min prior to carrageenan-challenge measured after 5 hr relative to control. It counts as functional.
Test [9] relates to Rattus norvegicus. Put plainly: Anti-inflammatory activity in Rattus norvegicus (rat) assessed as inhibition of carrageenan-induced paw edema at […] relative to control. In kind it is functional.

Chain of Prostaglandin G/H synthase 1 (Homo sapiens) (P23219 whole entry): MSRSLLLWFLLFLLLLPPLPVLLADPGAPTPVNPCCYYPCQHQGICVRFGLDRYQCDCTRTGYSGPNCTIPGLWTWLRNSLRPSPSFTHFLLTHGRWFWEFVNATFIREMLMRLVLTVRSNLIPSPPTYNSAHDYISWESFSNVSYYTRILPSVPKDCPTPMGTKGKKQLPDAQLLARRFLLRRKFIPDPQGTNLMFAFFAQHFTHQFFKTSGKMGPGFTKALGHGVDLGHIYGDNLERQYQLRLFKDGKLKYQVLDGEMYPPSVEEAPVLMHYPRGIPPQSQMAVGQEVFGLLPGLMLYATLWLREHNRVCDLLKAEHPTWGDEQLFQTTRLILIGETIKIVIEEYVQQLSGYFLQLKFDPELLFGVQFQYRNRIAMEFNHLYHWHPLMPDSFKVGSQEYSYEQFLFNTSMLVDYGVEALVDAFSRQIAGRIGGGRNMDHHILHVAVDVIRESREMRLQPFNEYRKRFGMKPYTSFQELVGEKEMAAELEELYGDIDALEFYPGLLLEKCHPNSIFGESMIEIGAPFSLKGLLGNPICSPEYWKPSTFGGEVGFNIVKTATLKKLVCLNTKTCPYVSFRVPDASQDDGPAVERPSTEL

`COc1ccc2c(C3=NOSN3c3ccccc3)cc(=O)oc2c1`: the inhibition in vivo at 10 mg/kg in the test on Rattus norvegicus [1] was 55.3%. Consider `CCOC(=O)c1cc(=O)oc2c3c(c4ccccc4c12)OC(C)(C)[C@@H](O)[C@H]3OC(=O)c1cccc(Cl)c1`, for which the inhibition in vivo at 100 µmol/kg in the test with Rattus norvegicus [2] worked out at 59%. Moreover, the inhibition in [3] came to 100%. Consider `CN(C)C(=O)Oc1cc2oc(=O)c(-c3cccnc3)cc2cc1Cl`, for which the IC50 in the test with PBMC was 450 nM. Consider `CCNC(=O)Nc1ccc(-c2cc3ccc(OC(=O)N(CC)CC)cc3oc2=O)cc1`, for which the IC50 with PBMC turned out to be 320 nM.

With `CC(=O)N1N=C(c2cc3cc(Br)ccc3oc2=O)CC1c1ccc([N+](=O)[O-])cc1` (stereo unspecified), the inhibition in vivo at 100 mg/kg in the test on Rattus norvegicus [4] came to 66.5%. As to `CCOC(=O)c1cc(=O)oc2c3c(c4ccccc4c12)OC(C)(C)[C@@H](O)[C@H]3O`, the inhibition in vivo at 100 µmol/kg with Rattus norvegicus [2] turned out to be 59%. For the same compound, the inhibition in [3] came out at 100%. `CCN(CC)C(=O)Oc1ccc2c(C)c(Cc3ccc(F)cc3)c(=O)oc2c1`: the IC50 with PBMC was determined as 2400 nM.

Consider `Cc1c/c(=N\c2ccc([N+](=O)[O-])cc2)oc2cc(O)ccc12`, for which the inhibition in [5] is 39%. `CC1=NC(c2cc(=O)oc3ccccc23)NO1` (stereo unspecified) yielded an inhibition in test [3] of 77%.

Consider `O=c1oc2ccccc2cc1/N=C/c1ccc(Cl)c(Cl)c1`, for which, in the test with Rattus norvegicus [6], the inhibition in vivo at 100 mg/kg amounted to 60%.

`CO/N=C/c1ccc2ccc(=O)oc2c1`: the “inhibition (INH)” value in the test on Rattus norvegicus [7] is 54%. For the compound `Cc1cc(=O)oc2cc(NCCN(CCN)CCN)ccc12`, in test [3], the inhibition was determined as 92.4%. Consider `O=c1ccc2ccc(/C=N/O)cc2o1`, for which, in test [5], the inhibition was determined as 78.6%. For `COC(=O)/N=C(/N)c1cc(=O)oc2ccccc12`, the inhibition in test [3] came to 76%.

As for `COc1ccc2c(c1)c(CC(=O)O)c(C)n2C(=O)c1ccc(Cl)cc1` [INDOMETHACIN], the inhibition in vivo at 10 mg/kg in the test on Rattus norvegicus [8] was 71%; in the test on Rattus norvegicus [1] it was 56.5%. Consider `CN(C)N/C(=N/O)c1cc(=O)oc2ccccc12`, for which, in the test on Rattus norvegicus [7], the “inhibition (INH)” value is listed as over 80%. Same read-out and setting: for `N/C(=N/C(=O)Oc1ccccc1)c1cc(=O)oc2ccccc12` the value was over 80%. Regarding `O=c1oc2ccccc2cc1/N=C/c1ccc(Cl)cc1`, the inhibition in vivo at 100 mg/kg in the test with Rattus norvegicus [6] is 75%. On to `CN/N=C/c1ccc2ccc(=O)oc2c1`, for which the “inhibition (INH)” value with Rattus norvegicus [7] was 54%.

Take `O=C(O)c1ccccc1NC(=O)c1cc2cc(Cl)ccc2oc1=O`: the “inhibition (INH)” value with Rattus norvegicus [7] is 54%. Turning to `COc1ccc2c(C)cc(=O)oc2c1-c1cc(-c2ccc(Cl)cc2)on1`, the “inhibition (INH)” value with Rattus norvegicus [9] came out at 68%. With `COc1ccc(-c2cc(-c3c(OC)ccc4c(C)cc(=O)oc34)no2)cc1`, the “inhibition (INH)” value with Rattus norvegicus [9] stood at 72%.

In the case of `CCCC(=O)N/N=C/c1coc2ccccc2c1=O`, the “inhibition (INH)” value with Rattus norvegicus [7] is 80.78%.
